Measured values: patent publication US20180162862A1 (President and Fellows of Harvard College, priority 2015, published 2018)
In brackets after ≈: the same amount, converted by molar mass. Read-outs that look alike come from different tables or passages of the source.

Experiments:
[1] = test system: S. aureus ATCC 43300; experiment: MIC test according to CLSI M7-A9, S. aureus ATCC 43300; type: cell-based; details: Staphylococcus aureus, read-out: S. aureus ATCC 43300 MIC at 24 h
Experimental: (§1) MIC Test (S. aureus ATCC 29213, S. aureus ATCC 43300 and S. aureus Newman)
(§2) Susceptibility testing of S. aureus ATCC 29213, ATCC 43300 and Newman was performed according to Clinical Laboratory Standard Institute (CLSI) guidelines M7-A9. Test articles were stored at room temperature prior to use, then dissolved in filtered sterile DMSO. Stock DMSO solutions were diluted further in cation-adjusted Mueller Hinton broth (CAMHB) to provide appropriate test concentrations. Cultures of S. aureus (ATCC 29213, ATCC 43300 or Newman) were added in accordance with CLSI guidelines and plates incubated at 37° C. in air for 24 h. Endpoints were determined visually (and by spectrophotometer at 600 nm) and the minimum inhibitory concentration (MIC) defined as the lowest concentration of test articles resulting in complete inhibition of visible bacterial growth. Results are detailed in Table 2 (S. aureus ATCC 29213 and ATCC 43300) and Table 3 (S. aureus ATCC 29213, ATCC 43300 and Newman).

[2] = test system: S. aureus ATCC 29213; experiment: MIC test according to CLSI M7-A9, S. aureus ATCC 29213; type: cell-based; details: Staphylococcus aureus, read-out: S. aureus ATCC 29213 MIC at 24 h
Experimental: as §1, §2

[3] = ATCC43300, CLSI M7-A9, CAMHB, 24 h (Table 2)
[4] = ATCC29213, CLSI M7-A9, CAMHB, 24 h (Table 2)

MIC [1, 3] | MIC [2, 4] | Compound | MIC ([1]; ATCC43300, 24 h) | MIC ([2]; ATCC29213, 24 h)
64 µg/mL (≈ 175 µM) | 64 µg/mL (≈ 175 µM) | CN1CCN(c2nc(-c3ccc(C(C)(C)C)cc3)nc3cc(=O)[nH]n23)CC1 [Example 18, 2-(4-tert-butylphenyl)-4-(4-methylpiperazin-1-yl)-6H,7H-pyrazolo[1,5-a][1,3,5]triazin-7-one] | – | –
128 µg/mL (≈ 348 µM) | 64 µg/mL (≈ 174 µM) | CC(C)(C)c1ccc(-c2nc(N3CCC(O)CC3)n3[nH]c(=O)cc3n2)cc1 [Example 20, 2-(4-tert-butylphenyl)-4-(4-hydroxypiperidin-1-yl)-6H,7H-pyrazolo[1,5-a][1,3,5]triazin-7-one] | – | –
> 128 µg/mL | 32 µg/mL (≈ 69.9 µM) | CC(C)(C)c1ccc(-c2nc(N3CCC(OCc4ccccc4)CC3)n3[nH]c(=O)cc3n2)cc1 [Example 21, 4-[4-(benzyloxy)piperidin-1-yl]-2-(4-tert-butylphenyl)-6H,7H-pyrazolo[1,5-a][1,3,5]triazin-7-one] | – | –
32 µg/mL (≈ 93.7 µM) | 8 µg/mL (≈ 23.4 µM) | CC(C)(C)c1ccc(-c2nc(NCCCO)n3[nH]c(=O)cc3n2)cc1 [Example 22, 2-(4-tert-butylphenyl)-4-[(3-hydroxypropyl)amino]-6H,7H-pyrazolo[1,5-a][1,3,5]triazin-7-one] | – | –
4 µg/mL (≈ 9.96 µM) | 4 µg/mL (≈ 9.96 µM) | CC(C)(C)c1ccc(-c2nc(NCCCc3ccccc3)n3[nH]c(=O)cc3n2)cc1 [Example 23, 2-(4-tert-butylphenyl)-4-[(3-phenylpropyl)amino]-6H,7H-pyrazolo[1,5-a][1,3,5]triazin-7-one] | – | –
– | – | CC(C)(C)c1ccc(-c2nc(NCCCn3ccnc3)n3[nH]c(=O)cc3n2)cc1 [Example 24, 2-(4-tert-butylphenyl)-4-{[3-(1H-imidazol-1-yl)propyl]amino}-6H,7H-pyrazolo[1,5-a][1,3,5]triazin-7-one] | 64 µg/mL (≈ 163 µM) | 64 µg/mL (≈ 163 µM)
32 µg/mL (≈ 90.3 µM) | 64 µg/mL (≈ 181 µM) | CN(C)CCNc1nc(-c2ccc(C(C)(C)C)cc2)nc2cc(=O)[nH]n12 [Example 25, 2-(4-tert-butylphenyl)-4-{[2-(dimethylamino)ethyl]amino}-6H,7H-pyrazolo[1,5-a][1,3,5]triazin-7-one] | – | –
32 µg/mL (≈ 90 µM) | 32 µg/mL (≈ 90 µM) | CC(C)(O)CNc1nc(-c2ccc(C(C)(C)C)cc2)nc2cc(=O)[nH]n12 [Example 26, 2-(4-tert-butylphenyl)-4-[(2-hydroxy-2-methylpropyl)amino]-6H,7H-pyrazolo[1,5-a][1,3,5]triazin-7-one] | – | –
32 µg/mL (≈ 103 µM) | > 32 µg/mL | CN(C)c1nc(-c2ccc(C(C)(C)C)cc2)nc2cc(=O)[nH]n12 [Example 32, 2-(4-tert-butylphenyl)-4-(dimethylamino)-6H,7H-pyrazolo[1,5-a][1,3,5]triazin-7-one] | – | –
8 µg/mL (≈ 19.2 µM) | 8 µg/mL (≈ 19.2 µM) | CC(C)(C)c1ccc(-c2nc(NCCCOc3ccccc3)n3[nH]c(=O)cc3n2)cc1 [Example 33, 2-(4-tert-butylphenyl)-4-[(3-phenoxypropyl)amino]-6H,7H-pyrazolo[1,5-a][1,3,5]triazin-7-one] | – | –
16 µg/mL (≈ 45.3 µM) | 16 µg/mL (≈ 45.3 µM) | CCCCN(C)c1nc(-c2ccc(C(C)(C)C)cc2)nc2cc(=O)[nH]n12 [Example 34, 4-[butyl(methyl)amino]-2-(4-tert-butylphenyl)-6H,7H-pyrazolo[1,5-a][1,3,5]triazin-7-one] | – | –
8 µg/mL (≈ 17.5 µM) | 8 µg/mL (≈ 17.5 µM) | CC(C)(C)c1ccc(-c2nc(NC3CCN(Cc4ccccc4)CC3)n3[nH]c(=O)cc3n2)cc1 [Example 35, 4-[(1-benzylpiperidin-4-yl)amino]-2-(4-tert-butylphenyl)-6H,7H-pyrazolo[1,5-a][1,3,5]triazin-7-one] | – | –
8 µg/mL (≈ 21.9 µM) | 8 µg/mL (≈ 21.9 µM) | CC(C)(C)c1ccc(-c2nc(NC3CCCCC3)n3[nH]c(=O)cc3n2)cc1 [Example 36, 2-(4-tert-butylphenyl)-4-(cyclohexylamino)-6H,7H-pyrazolo[1,5-a][1,3,5]triazin-7-one] | – | –
32 µg/mL (≈ 75.7 µM) | 32 µg/mL (≈ 75.7 µM) | CC(C)(C)c1ccc(-c2nc(NCCCNC3CCCCC3)n3[nH]c(=O)cc3n2)cc1 [Example 39, 2-(4-tert-butylphenyl)-4-{[3-(cyclohexylamino)propyl]amino}-6H,7H-pyrazolo[1,5-a][1,3,5]triazin-7-one] | – | –
128 µg/mL (≈ 301 µM) | 128 µg/mL (≈ 301 µM) | CC(C)(C)c1ccc(-c2nc(NCCCN3CCC(O)CC3)n3[nH]c(=O)cc3n2)cc1 [Example 40, 2-(4-tert-butylphenyl)-4-{[3-(4-hydroxypiperidin-1-yl)propyl]amino}-6H,7H-pyrazolo[1,5-a][1,3,5]triazin-7-one] | – | –
128 µg/mL (≈ 312 µM) | 128 µg/mL (≈ 312 µM) | CC(C)(C)c1ccc(-c2nc(NCCCN3CCOCC3)n3[nH]c(=O)cc3n2)cc1 [Example 41, 2-(4-tert-butylphenyl)-4-{[3-(morpholin-4-yl)propyl]amino}-6H,7H-pyrazolo[1,5-a][1,3,5]triazin-7-one] | – | –
8 µg/mL (≈ 17.5 µM) | 8 µg/mL (≈ 17.5 µM) | CC(C)(C)c1ccc(-c2nc(NCCCNC3Cc4ccccc4C3)n3[nH]c(=O)cc3n2)cc1 [Example 42, 2-(4-tert-butylphenyl)-4-({3-[(2,3-dihydro-1H-inden-2-yl)amino]propyl}amino)-6H,7H-pyrazolo[1,5-a][1,3,5]triazin-7-one] | – | –
8 µg/mL (≈ 19.2 µM) | 8 µg/mL (≈ 19.2 µM) | CC(C)(C)c1ccc(-c2nc(NCCCNc3ccccc3)n3[nH]c(=O)cc3n2)cc1 [Example 43, 2-(4-tert-butylphenyl)-4-{[3-(phenylamino)propyl]amino}-6H,7H-pyrazolo[1,5-a][1,3,5]triazin-7-one] | – | –
> 128 µg/mL | 64 µg/mL (≈ 145 µM) | CC(C)(C)c1ccc(-c2nc(NCCCN3Cc4ccccc4C3)n3[nH]c(=O)cc3n2)cc1 [Example 44, 2-(4-tert-butylphenyl)-4-{[3-(2,3-dihydro-1H-isoindol-2-yl)propyl]amino}-6H,7H-pyrazolo[1,5-a][1,3,5]triazin-7-one] | – | –
> 32 µg/mL | > 32 µg/mL | CC(C)(C)c1ccc(-c2nc(NCCCOc3cnccn3)n3[nH]c(=O)cc3n2)cc1 [Example 50, 2-(4-tert-butylphenyl)-4-{[3-(pyrazin-2-yloxy)propyl]amino}-6H,7H-pyrazolo[1,5-a][1,3,5]triazin-7-one] | – | –
> 64 µg/mL | > 64 µg/mL | CC(C)(C)c1ccc(-c2nc(NCCCn3ccncc3=O)n3[nH]c(=O)cc3n2)cc1 [Example 51, 1-(3-{[2-(4-tert-butylphenyl)-7-oxo-6H,7H-pyrazolo[1,5-a][1,3,5]triazin-4-yl]amino}propyl)-1,2-dihydropyrazin-2-one] | – | –
4 µg/mL (≈ 8.15 µM) | 4 µg/mL (≈ 8.15 µM) | Cc1cc(NC2CCN(c3nc(-c4ccc(C(C)(C)C)cc4)nc4cc(=O)[nH]n34)CC2)ccc1Cl [Example 54, 2-(4-tert-butylphenyl)-4-{4-[(4-chloro-3-methylphenyl)amino]piperidin-1-yl}-6H,7H-pyrazolo[1,5-a][1,3,5]triazin-7-one] | – | –
32 µg/mL (≈ 69.5 µM) | 32 µg/mL (≈ 69.5 µM) | Cc1ncc(CN2CCC(Nc3nc(-c4ccc(C(C)(C)C)cc4)nc4cc(=O)[nH]n34)CC2)[nH]1 [Example 55, 2-(4-tert-butylphenyl)-4-({1-[(2-methyl-1H-imidazol-5-yl)methyl]piperidin-4-yl}amino)-6H,7H-pyrazolo[1,5-a][1,3,5]triazin-7-one] | – | –
8 µg/mL (≈ 17 µM) | 16 µg/mL (≈ 34 µM) | CC(C)(C)c1ccc(-c2nc(NC3CCC(NCc4ccccc4)CC3)n3[nH]c(=O)cc3n2)cc1 (stereo not shown) [Example 56, 4-{[4-(benzylamino)cyclohexyl]amino}-2-(4-tert-butylphenyl)-6H,7H-pyrazolo[1,5-a][1,3,5]triazin-7-one] | – | –
8 µg/mL (≈ 16.8 µM) | 4 µg/mL (≈ 8.39 µM) | Cc1cc(NCC2CN(c3nc(-c4ccc(C(C)(C)C)cc4)nc4cc(=O)[nH]n34)C2)ccc1Cl [Example 57, 2-(4-tert-butylphenyl)-4-(3-{[(4-chloro-3-methylphenyl)amino]methyl}azetidin-1-yl)-6H,7H-pyrazolo[1,5-a][1,3,5]triazin-7-one] | – | –
64 µg/mL (≈ 130 µM) | 64 µg/mL (≈ 130 µM) | Cc1ccc(S(=O)(=O)CCCNc2nc(-c3ccc(C(C)(C)C)cc3)nc3cc(=O)[nH]n23)cc1C [Example 58, 2-(4-tert-butylphenyl)-4-{[3-(3,4-dimethylbenzenesulfonyl)propyl]amino}-6H,7H-pyrazolo[1,5-a][1,3,5]triazin-7-one] | – | –
8 µg/mL (≈ 16.6 µM) | 4 µg/mL (≈ 8.3 µM) | Cc1cc(OCC(O)CNc2nc(-c3ccc(C(C)(C)C)cc3)nc3cc(=O)[nH]n23)ccc1Cl (stereo not shown) [Example 60, 2-(4-tert-butylphenyl)-4-{[3-(4-chloro-3-methylphenoxy)-2-hydroxypropyl]amino}-6H,7H-pyrazolo[1,5-a][1,3,5]triazin-7-one] | – | –
32 µg/mL (≈ 73 µM) | 32 µg/mL (≈ 73 µM) | CC(C)(C)c1ccc(-c2nc(NCC(O)CNC3CCCCC3)n3[nH]c(=O)cc3n2)cc1 (stereo not shown) [Example 61, 2-(4-tert-butylphenyl)-4-{[3-(cyclohexylamino)-2-hydroxypropyl]amino}-6H,7H-pyrazolo[1,5-a][1,3,5]triazin-7-one] | – | –
16 µg/mL (≈ 32.6 µM) | 4 µg/mL (≈ 8.15 µM) | Cc1cc(N2CCC(Nc3nc(-c4ccc(C(C)(C)C)cc4)nc4cc(=O)[nH]n34)CC2)ccc1Cl [Example 62, 2-(4-tert-butylphenyl)-4-{[1-(4-chloro-3-methylphenyl)piperidin-4-yl]amino}-6H,7H-pyrazolo[1,5-a][1,3,5]triazin-7-one] | – | –
